How the values were obtained:
GLP-1R [1] = molecular target: T1, GLP-1R (Homo sapiens, UniProt P43220); assay: Tag-lite binding assay (competition with GLP-1 receptors red agonist); conditions: for IC50: HEK293 GLP-1 cells labeled with SNAP-Lumi4-Tb, red agonist 4.917 nM, 23° C., 2 h; for Ki: calculated from sample IC50 and red agonist Kd
Procedure: B. Tag-Lite Binding Assay
The cell line was constructed by WuXi.
10) Dispense cells into cell plate (1.8 M cells/well in 2 ml medium of 6-well plate, total 4 wells).
Second Day: Tag-Lite Binding Assay
3) The cell culture medium is removed from the 6-well plate and then 1 mL of Tag-lite SNAP-Lumi4-Tb diluted in Tag-lite labeling medium are added gently on the cells.
7) The testing compounds and reference compound are serially diluted with 3-fold, 10 points using Echo, then transfer 100 nL compounds to the assay plate.
8) Add the labeled cells to each well according to the plate map, 10000 cells/10 uL/well. Centrifuge the plate at 1000 rpm for 1 min.
9) Incubate the plate at 23° C., 30 min.
10) Add 50 nL of red agonist (final conc.: 4.917 nM) to destination plate using Echo.
11) Incubate the plate at 23° C. for 2 h.
12) Read the plate on an HTRF® compatible reader (at 665 nm and 620 nm).
% Inhibition=100%−(Ratio−LC)/(HC−LC)*100%
HC: The average ratio of adding DMSO wells
LC: The average ratio of adding the top concentration of reference compounds wells
b) The “log (inhibitor) vs. response—Variable slope” model in GraphPad Prism 5.0 was used to fit the dose-response curve of each sample. The sample concentration (x) and its corresponding % Inhibition data (y) were substituted into the model. The sample concentration (abscissa) was x=log(x) transformed. The transformed xy was used as the sample curve to obtain the IC50.
c) Calculate the sample Ki according to the sample IC50 and red agonist Kd. S in the formula is the actual used concentration of red agonist.

GLP-1R [2] = molecular target: T1, GLP-1R; assay: GLP-1R agonist cAMP stimulation assay (HTRF cAMP); assay type: cell-based; conditions: HEK293 cell line expressing GLP-1 target; HTRF cAMP agonist mode, 30 min at RT
In short: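 Read-out was HTRF (665/615 ratio), interpolated onto a cAMP standard curve and normalised to DMSO (0%) and maximal GLP-1(7-37) reference (100%) wells. Assay: GLP-1R cells at 1.0×E5/mL incubated with compound dilution series (3-fold, 10 points) for 30 min at room temperature before 60 min detection.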

T1 sequence (P43220 24-463): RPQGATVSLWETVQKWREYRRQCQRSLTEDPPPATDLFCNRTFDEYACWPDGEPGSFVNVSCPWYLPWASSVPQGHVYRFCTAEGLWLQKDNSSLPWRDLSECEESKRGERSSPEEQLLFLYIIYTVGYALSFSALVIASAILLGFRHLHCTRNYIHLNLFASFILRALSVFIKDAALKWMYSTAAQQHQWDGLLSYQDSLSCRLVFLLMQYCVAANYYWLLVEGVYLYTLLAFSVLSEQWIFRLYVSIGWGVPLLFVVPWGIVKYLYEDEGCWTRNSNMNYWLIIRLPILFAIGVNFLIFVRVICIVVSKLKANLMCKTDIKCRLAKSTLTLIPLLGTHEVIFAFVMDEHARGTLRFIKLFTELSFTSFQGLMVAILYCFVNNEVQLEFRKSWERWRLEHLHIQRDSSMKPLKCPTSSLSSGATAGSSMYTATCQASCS

Row | SMILES | IC50 (GLP-1R [1]) [nM] | Ki (GLP-1R [1]) [nM] | EC50 (GLP-1R [2]) [nM]
1 | CCn1cncc1Cn1c(Cc2c(F)cc(-c3cccc4c3O[C@@](C)(c3ccc(Cl)cn3)O4)cc2F)nc2cc(NC(=O)c3cc(F)c4[nH]nc(C)c4c3)ccc21 [Compound 411] | 120 | 72.6 | 0.33
2 | Cc1n[nH]c2c(F)cc(C(=O)Nc3ccc4c(c3)nc(CN3CC=C(c5cccc(OCc6ccc(Cl)cc6F)n5)CC3)n4C[C@@H]3CCO3)cc12 [Compound 196] | 152 | 87.9 | 0.17
3 | Cc1n[nH]c2ccc(C(=O)Nc3ccc4c(c3)nc(CN3CCC(c5cccc6c5OC(C)(c5ccc(Cl)cc5F)O6)CC3)n4CC3CCO3)cc12 (stereo not drawn) [Compound 342] | 140 | 72.2 | 0.91
4 | Cc1n[nH]c2c(C)cc(NC(=O)c3ccc4c(c3)nc(CN3CC=C(c5cccc6c5O[C@](C)(c5ccc(Cl)cn5)O6)CC3)n4CC3CCO3)cc12 (stereo partly drawn) [Compound 383] | 1480 | 899 | 1.92
5 | O=C(Nc1ccc2c(c1)nc(CN1CC=C(c3cccc(OCc4ccc(Cl)cc4F)n3)CC1)n2C[C@@H]1CCO1)c1ccc2[nH]c(=O)[nH]c2c1 [Compound 142] | 2010 | 1000 | 0.21
6 | Cc1n[nH]c2c(F)cc(NC(=O)c3ccc4c(c3)nc(CN3CC=C(c5cccc(OCc6ccc(Cl)cc6F)n5)CC3)n4C[C@@H]3CCO3)cc12 [Compound 153] | 1450 | 873 | 0.59
7 | CCn1cncc1Cn1c(CN2CC=C(c3cccc(OCc4ccc(Cl)cc4F)n3)CC2)nc2cc(NC(=O)c3cc(F)c4[nH]nc(C)c4c3)ccc21 [Compound 408] | 106 | 68.4 | 0.21
8 | O=C(Nc1ccc2[nH]c(=O)[nH]c2c1)c1ccc2c(c1)nc(CN1CCC(c3cccc(OCc4ccc(Cl)cc4F)n3)CC1)n2C[C@@H]1CCO1 [Compound 90] | 1900 | 950 | 1.59
9 | Cc1n[nH]c2c(F)cc(NC(=O)c3ccc4c(c3)nc(CN3CCC(c5cccc(OCc6ccc(C#N)cc6F)n5)CC3)n4C[C@@H]3CCO3)cc12 [Compound 126] | 1400 | 806 | 0.18
10 | CCn1cncc1Cn1c(Cc2c(F)cc(-c3cccc(OCc4ccc(Cl)cc4F)n3)cc2F)nc2cc(NC(=O)c3cc(F)c4[nH]nc(C)c4c3)ccc21 [Compound 415] | 233 | 117 | 0.71
11 | Cc1n[nH]c2c(F)cc(NC(=O)c3ccc4c(c3)nc(CN3CCC(c5cccc(OCc6ccc(Cl)cc6F)n5)CC3)n4C[C@@H]3CCO3)cc12 [Compound 103] | 1550 | 885 | 0.83
12 | Cc1n[nH]c2c(F)cc(C(=O)Nc3ccc4c(c3)nc(C3CC35CCN(c3cccc(OCc6ccc(Cl)cc6F)n3)CC5)n4CC3CCO3)cc12 (stereo not drawn) [Compound 244] | 189 | 110 | 0.33
13 | Cc1n[nH]c2c(F)cc(NC(=O)c3ccc4c(c3)nc(CN3CCC(c5cccc6c5OC(C)(c5ccc(C#N)cc5F)O6)CC3)n4CC3CCO3)cc12 (stereo not drawn) [Compound 334] | 1210 | 692 | 0.61
14 | Cc1n[nH]c2c(C)cc(NC(=O)c3ccc4c(c3)nc(CN3CCC(c5cccc(OCc6ccc(Cl)cc6F)n5)CC3)n4C[C@@H]3CCO3)cc12 [Compound 100] | 1260 | 893 | 0.98
15 | Cc1n[nH]c2c(F)cc(C(=O)Nc3ccc4c(c3)nc(Cc3c(F)cc(-c5cccc6c5O[C@@](C)(c5ccc(Cl)cn5)O6)cc3F)n4CC3CCO3)cc12 (stereo partly drawn) [Compound 386] | 120 | 69.9 | 0.15
16 | Cc1n[nH]c2c(C)cc(NC(=O)c3ccc4c(c3)nc(CN3CC=C(c5cccc(OCc6ccc(Cl)cc6F)n5)CC3)n4C[C@@H]3CCO3)cc12 [Compound 151] | 1050 | 519 | 0.6
17 | Cc1n[nH]c2c(C)cc(C(=O)Nc3ccc4c(c3)nc(CN3CC=C(c5cccc6c5O[C@](C)(c5ccc(Cl)cc5F)O6)CC3)n4CC3CCO3)cc12 (stereo partly drawn) [Compound 385] | 158 | 82.7 | 0.61

Reference: patent US20230271949A1, “GLP-1R MODULATING COMPOUNDS” (ASCLETIS BIOSCIENCE CO., LTD., priority 2022, published 2023)
